In one experiment the target is T1, SENP2 (Homo sapiens, UniProt Q9HC62).
T1 sequence (Q9HC62 364-589): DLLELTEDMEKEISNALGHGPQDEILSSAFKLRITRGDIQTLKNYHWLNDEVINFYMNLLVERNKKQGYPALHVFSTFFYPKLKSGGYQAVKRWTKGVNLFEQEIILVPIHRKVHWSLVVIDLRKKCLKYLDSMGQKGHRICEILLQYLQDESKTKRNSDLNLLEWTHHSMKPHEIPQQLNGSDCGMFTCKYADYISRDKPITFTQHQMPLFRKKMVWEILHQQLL
Nature of the experiment: DUB-Glo bioluminescent peptide substrate assay, SENP2. Type of experiment: biochemical. The following applies: read-out: SENP2 IC50.

A further experiment has as its target T2, SENP7 (Homo sapiens, UniProt Q9BQF6).
T2 sequence (Q9BQF6 760-1050 limits assumed): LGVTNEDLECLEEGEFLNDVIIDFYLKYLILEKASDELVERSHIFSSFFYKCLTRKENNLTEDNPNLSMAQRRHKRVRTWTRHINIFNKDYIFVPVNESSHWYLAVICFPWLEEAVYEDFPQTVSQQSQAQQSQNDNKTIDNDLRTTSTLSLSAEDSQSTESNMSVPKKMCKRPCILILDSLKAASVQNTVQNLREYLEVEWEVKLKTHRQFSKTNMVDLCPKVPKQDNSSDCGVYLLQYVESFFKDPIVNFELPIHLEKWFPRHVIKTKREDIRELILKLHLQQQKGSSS
Description: DUB-Glo bioluminescent peptide substrate assay, SENP7. Type of experiment: biochemical. The following applies: read-out: SENP7 IC50.

A further experiment has as its system HeLa cells. Nature of the experiment: Cellular SENP inhibition: SUMOylated proteins in HeLa cells by Western blot. The format is cell-based. The settings on record: increasing concentrations, 48 h. For orientation: A western blot detects proteins with antibodies after separation by electrophoresis.

Turning to `Cc1cc(N)ccc1/N=N/c1cc(S(=O)(=O)O)c2cccc(S(=O)(=O)O)c2c1` [SPI-07], the results for the IC50 at SENP2 and at SENP7 were greater than 60 µM and 1.9 ± 2.2 µM, respectively.
Regarding `Nc1ccc2ccccc2c1N=Nc1ccc(/C=C/c2ccc(N=Nc3c(N)ccc4ccccc34)cc2S(=O)(=O)O)c(S(=O)(=O)O)c1` [SPI-01], in the experiment with HeLa cells, the “accumulation of SUMO-1 conjugates in cells” value is on record as “less significant effects”; the “accumulation of SUMO-2/3 conjugates in cells” value was “SUMO-2/3 conjugates accumulated in cells and this accumulation correlated with inhibitor concentration”.
Regarding `Nc1ccc2cc(S(=O)(=O)O)cc(S(=O)(=O)O)c2c1N=Nc1ccc(S(=O)(=O)O)cc1` [SPI-09], the IC50 (in general, the concentration that gives 50% inhibition) on SENP7 turned out to be 1.9 ± 2.1 µM.
For the compound `Nc1c(N=Nc2ccccc2)cc(S(=O)(=O)O)c2ccccc12` [SPI-08], on SENP7, the IC50 was found to be 2.8 ± 1.6 µM.

For the origin of these results see article PMC3840147 (ACS chemical biology, 2013).
